Data as given in US12509424B2, “Compound and composition as PDGF receptor kinase inhibitor” (NIPPON SHINYAKU CO., LTD., priority 2019, dated 2025).
pIC50: −log10 of the molar value. Where two headings read alike, the source gives them in different places.

What was measured:
[1] = target: TEL-KIT fusion gene transfected cells (Ba/F3) (Homo sapiens, UniProt P10721); experiment: Suppression of proliferation of TEL-KIT fusion gene transfected Ba/F3 cells; conditions: read-out: KIT/BaF3 proliferation inhibition (IC50); TEL-KIT expressing Ba/F3 cells, 72 hours, final concentration 0.1 to 10,000 nM;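 further: viable cells quantified via formazan from tetrazolium reduction, inhibition scaled with 0.1% DMSO control as 0% and medium-only blank as 100%, IC50 from two-parameter logistic fit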
Sequence of TEL-KIT fusion gene transfected cells (Ba/F3) (Homo sapiens, UniProt P10721) (P10721 26-976 limits assumed, change not shown): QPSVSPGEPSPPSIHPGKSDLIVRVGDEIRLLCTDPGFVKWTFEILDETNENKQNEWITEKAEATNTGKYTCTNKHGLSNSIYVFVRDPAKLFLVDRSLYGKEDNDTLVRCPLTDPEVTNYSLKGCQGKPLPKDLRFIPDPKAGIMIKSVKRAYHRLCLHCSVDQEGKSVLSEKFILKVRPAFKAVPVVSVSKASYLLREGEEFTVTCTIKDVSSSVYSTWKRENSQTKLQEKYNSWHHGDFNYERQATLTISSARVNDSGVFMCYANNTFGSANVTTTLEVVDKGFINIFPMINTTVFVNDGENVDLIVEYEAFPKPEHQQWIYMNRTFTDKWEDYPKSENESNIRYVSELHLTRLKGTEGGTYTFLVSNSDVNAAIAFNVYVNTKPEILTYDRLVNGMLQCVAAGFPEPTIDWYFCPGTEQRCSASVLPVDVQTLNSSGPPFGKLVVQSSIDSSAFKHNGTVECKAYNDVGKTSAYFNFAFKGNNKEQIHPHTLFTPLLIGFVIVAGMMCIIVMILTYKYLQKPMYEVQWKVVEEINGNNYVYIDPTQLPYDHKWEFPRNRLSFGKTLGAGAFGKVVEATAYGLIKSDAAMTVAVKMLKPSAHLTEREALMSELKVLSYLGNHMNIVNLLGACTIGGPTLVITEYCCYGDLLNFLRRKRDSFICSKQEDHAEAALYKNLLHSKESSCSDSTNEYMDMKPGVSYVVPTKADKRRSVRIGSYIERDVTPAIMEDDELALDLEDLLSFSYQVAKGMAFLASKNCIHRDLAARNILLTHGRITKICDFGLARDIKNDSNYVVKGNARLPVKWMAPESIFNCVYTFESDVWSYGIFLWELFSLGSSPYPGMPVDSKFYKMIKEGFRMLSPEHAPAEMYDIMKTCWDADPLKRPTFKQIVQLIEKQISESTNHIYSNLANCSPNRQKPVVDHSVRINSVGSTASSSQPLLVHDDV
Excerpt: (§3) Fabrication of TEL-PDGFRβ and TEL-KIT Fusion Gene Transfected Cells
(§4) Subsequently, the vectors for gene transfection were introduced using a transfection reagent (FuGENE6, Promega Corporation) into packaging cells derived from a human fetal kidney cell line, PLAT-E, in the logarithmic growth phase. Since the culture supernatant of PLAT-E after the gene transfection contained virus particles for gene transfection, it was collected and used as a medium for gene transfection. The medium for gene transfection was added to a plate coated with RetroNectin and incubated, and the virus particles were allowed to adhere to the plate. Thereafter, the mouse pro-B cell line Ba/F3 in the logarithmic growth phase was seeded onto the plate and infected with the virus to fabricate cells that proliferate in a PDGFRβ or KIT dependent manner.
(§5) The test substance was prepared with dimethyl sulfoxide (DMSO) to 10 mM and diluted with DMSO so as to reach a concentration of 0.0001 to 3 mM. Furthermore, it was diluted by 100 times with distilled water.
(§6) Measurement of Suppression Action Against Proliferation of TEL-PDGFRβ or TEL-KIT Expressing Cells
(§7) The day after TEL-PDGFRβ and TEL-KIT expressing cells were seeded onto 96 well plates, the prepared test substance solution was added thereto with a final concentration being 0.1 to 10,000 nM. After 72 hours, the viable cell count was measured using the amount of formazan generated from the reduction of a tetrazolium salt compound by the mitochondrial dehydrogenase of viable cells as an indicator.
(§8) Based on the amount of formazan in each condition, the suppression rate against cell proliferation was calculated when the amounts of formazan in the negative control (0.1% DMSO solution) and Blank (medium only) were defined as 0% and 100%, respectively. Subsequently, a nonlinear regression analysis with a two parameter logistic model for the log dose and suppression rate against cell proliferation was carried out using the SAS system (SAS Institute Inc.) to estimate the IC50 value.

[2] = test system: pulmonary arterial smooth muscle cells; experiment: Suppression of proliferation of pulmonary arterial smooth muscle cells (PDGF-BB stimulation, BrdU); assay type: cell-based; conditions: healthy human derived pulmonary arterial smooth muscle cells, human PDGF-BB 10 ng/mL stimulation, BrdU uptake after 1 day, test substance final concentration 3 to 10,000 nM, read-out: Human normal PASMC proliferation suppression (PDGF stimulation_IC50)
How it was run: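 Test compound (final 3 to 10,000 nM) was added together with BrdU and PDGF-BB (final 10 ng/mL) to healthy human pulmonary artery smooth muscle cells held a day in 0.1% FBS. Proliferation was read after 1 day as anti-BrdU-detected BrdU incorporation.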

[3] = target: TEL-PDGFRβ fusion gene transfected cells (Ba/F3) (Homo sapiens, UniProt P09619); experiment: Suppression of proliferation of TEL-PDGFRβ fusion gene transfected Ba/F3 cells; assay type: cell-based; conditions: TEL-PDGFRβ expressing Ba/F3 cells, 72 hours, final concentration 0.1 to 10,000 nM; read-out: PDGFR β/BaF3 proliferation inhibition (IC50)
Sequence of TEL-PDGFRβ fusion gene transfected cells (Ba/F3) (Homo sapiens, UniProt P09619) (P09619 33-1106 limits assumed, change not shown): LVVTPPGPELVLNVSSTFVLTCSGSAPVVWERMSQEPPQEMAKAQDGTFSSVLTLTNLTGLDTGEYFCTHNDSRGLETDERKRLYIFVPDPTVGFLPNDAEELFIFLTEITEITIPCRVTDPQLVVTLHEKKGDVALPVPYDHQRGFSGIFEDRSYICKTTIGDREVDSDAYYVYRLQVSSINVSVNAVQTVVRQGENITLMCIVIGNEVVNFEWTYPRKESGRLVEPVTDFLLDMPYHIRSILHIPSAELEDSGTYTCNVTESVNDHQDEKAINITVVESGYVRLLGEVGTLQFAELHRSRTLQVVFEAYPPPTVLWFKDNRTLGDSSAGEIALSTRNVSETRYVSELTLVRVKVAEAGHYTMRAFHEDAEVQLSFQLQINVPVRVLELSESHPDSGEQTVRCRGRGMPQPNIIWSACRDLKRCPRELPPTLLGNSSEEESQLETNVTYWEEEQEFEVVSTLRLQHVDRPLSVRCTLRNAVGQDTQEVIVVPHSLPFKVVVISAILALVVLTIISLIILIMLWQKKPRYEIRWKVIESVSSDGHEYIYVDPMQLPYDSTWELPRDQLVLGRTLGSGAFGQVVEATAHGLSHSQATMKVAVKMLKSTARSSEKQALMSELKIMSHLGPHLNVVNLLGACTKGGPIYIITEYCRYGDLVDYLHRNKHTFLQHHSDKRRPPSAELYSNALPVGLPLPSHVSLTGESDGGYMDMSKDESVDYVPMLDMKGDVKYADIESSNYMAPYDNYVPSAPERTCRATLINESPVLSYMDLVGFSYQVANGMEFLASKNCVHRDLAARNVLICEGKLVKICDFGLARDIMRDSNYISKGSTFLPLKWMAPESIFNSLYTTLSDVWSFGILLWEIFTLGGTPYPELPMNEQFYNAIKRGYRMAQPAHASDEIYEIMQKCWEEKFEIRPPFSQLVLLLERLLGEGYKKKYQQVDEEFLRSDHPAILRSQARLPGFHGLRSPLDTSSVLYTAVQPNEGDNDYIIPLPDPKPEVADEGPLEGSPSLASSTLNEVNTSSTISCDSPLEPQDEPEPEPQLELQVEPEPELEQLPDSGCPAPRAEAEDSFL
Excerpt: (§1) 2. Preparation of Test Substance
(§2) 4. Analysis of Measurement Results

PDGFR-β = PDGFR-β (Homo sapiens (Human), UniProt P09619); experiment: PDGFR-β tyrosine kinase inhibitory action (HTRF KinEASE-TK); assay type: biochemical; conditions: PDGFR-β enzyme 1 ng/μL, 30° C. for 30 minutes; read-out: PDGF-β IC50
Sequence of PDGFR-β (P09619 33-1106): as the sequence (P09619 33-1106 limits assumed, change not shown) above
How it was run: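 Recombinant PDGFR-β at 1 ng/μL final with TK substrate-3-biotin in a substrate solution containing 0.6 μM ATP; buffer 50 mM HEPES pH 7.0, 5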

[4] = target: TEL-KIT fusion gene transfected cells (Ba/F3); experiment: Suppression of proliferation of TEL-KIT fusion gene transfected Ba/F3 cells; conditions: read-out: KIT/BaF3 proliferation inhibition (IC50); TEL-KIT expressing Ba/F3 cells, 72 hours, final concentration 0.1 to 10,000 nM;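 further: viable cells quantified via formazan from tetrazolium reduction, inhibition scaled with 0.1% DMSO control as 0% and medium-only blank as 100%, IC50 from two-parameter logistic fit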
Sequence of TEL-KIT fusion gene transfected cells (Ba/F3) (P10721 26-976 limits assumed, change not shown): as the sequence (P10721 26-976 limits assumed, change not shown) above
Excerpt: as §3, §4, §5, §6, §7, §8

[5] = target: TEL-PDGFRβ fusion gene transfected cells (Ba/F3); experiment: Suppression of proliferation of TEL-PDGFRβ fusion gene transfected Ba/F3 cells; assay type: cell-based, human; conditions: TEL-PDGFRβ expressing Ba/F3 cells, 72 hours, final concentration 0.1 to 10,000 nM; read-out: PDGFR β/BaF3 proliferation inhibition (IC50)
Excerpt: as §1, §2

| pIC50 (PDGFR-β) | pIC50 [4] | pIC50 [5] | Compound | pIC50 [1] | pIC50 [2] | pIC50 [3] | pIC50 ([2]; PASMC, 24 h) |
| --- | --- | --- | --- | --- | --- | --- | --- |
| 6.44 |  |  | 3-{[([3,3′-bipyridin]-5-yl)methyl]amino}-N-[(1S,2S)-2-hydroxycyclohexyl]-4-methylbenzamide [Example 93] | 5.21 | 6.59 | 7.35 |  |
| 6.47 | < 5.00 | 6.64 | Cc1ccc(C(=O)N[C@@H](CO)[C@@H](O)c2ccccc2)cc1CNc1cncc(C2CC2)c1 [Example 154, 3-{[(5-cyclopropylpyridin-3-yl)amino]methyl}-N-[(1S,2S)-1,3-dihydroxy-1-phenylpropan-2-yl]-4-methylbenzamide] |  |  |  | 7.01 |
| 7.44 | 5.00 | 7.16 | Cc1ccc(C(=O)N[C@@H](CO)[C@@H](O)c2ccccc2)cc1CNc1cncc(-c2ccccn2)c1 [Example 155, 3-{[([2,3′-bipyridin]-5′-yl)amino]methyl}-N-[(1S,2S)-1,3-dihydroxy-1-phenylpropan-2-yl]-4-methylbenzamide] |  |  |  | 6.80 |
| 7.60 | < 5.00 | 7.66 | Cc1ccc(C(=O)N[C@@H](CO)[C@@H](O)c2ccccc2)cc1CNc1cncc(-c2ccccc2)n1 [Example 156, N-[(1S,2S)-1,3-dihydroxy-1-phenylpropan-2-yl]-4-methyl-3-{[(6-phenylpyrazin-2-yl)amino]methyl}benzamide] |  |  |  | 7.10 |
| 7.59 | 5.52 | 7.39 | COc1ccc(-c2cncc(NCc3cccc(NC(=O)N[C@@H]4CCCC[C@@H]4O)c3)n2)cc1OC [Example 158, N-[3-({[6-(3,4-dimethoxyphenyl)pyrazin-2-yl]amino}methyl)phenyl]-N′-[(1R,2S)-2-hydroxycyclohexyl]urea] |  |  |  | 7.66 |
| 7.59 | 6.42 | 8.77 | O=C(Nc1cccc(CNc2cncc(-c3ncccn3)c2)c1)N[C@@H]1CCCC[C@@H]1O [Example 159, N-[(1R,2S)-2-hydroxycyclohexyl]-N′-[3-({[5-(pyrimidin-2-yl)pyridin-3-yl]amino}methyl)phenyl]urea] |  |  |  | 7.68 |
| 7.34 | 5.92 | 8.23 | O=C(Nc1cc(CNc2cncc(-c3ncccn3)c2)ccc1F)N[C@@H]1CCCC[C@@H]1O [Example 160, N-[2-fluoro-5-({[5-(pyrimidin-2-yl)pyridin-3-yl]amino}methyl)phenyl]-N′-[(1R,2S)-2-hydroxycyclohexyl]urea] |  |  |  | 7.36 |
| 7.80 | < 5.00 | 8.32 | O=C(Nc1ccc(F)c(CNc2cncc(-c3ncccn3)c2)c1)N[C@@H]1CCCC[C@@H]1O [Example 161, N-[4-fluoro-3-({[5-(pyrimidin-2-yl)pyridin-3-yl]amino}methyl)phenyl]-N′-[(1R,2S)-2-hydroxycyclohexyl]urea] |  |  |  | 6.96 |
| 8.59 | 6.57 | 8.96 | Cc1ccc(NC(=O)N[C@@H]2CCCC[C@@H]2O)cc1CNc1cncc(-c2ncccn2)c1 [Example 162, N-[(1R,2S)-2-hydroxycyclohexyl]-N′-[4-methyl-3-({[5-(pyrimidin-2-yl)pyridin-3-yl]amino}methyl)phenyl]urea] |  |  |  | 7.44 |
| 6.96 | 5.85 | 6.74 | Cc1ccc(C(=O)N[C@H]2CCCC[C@@H]2O)cc1C(C)Nc1cncc(-c2ccccc2)n1 (stereo partly drawn) [Example 164, N-[(1S,2S)-2-hydroxycyclohexyl]-4-methyl-3-{1-[(6-phenylpyrazin-2-yl)amino]ethyl}benzamide] |  |  |  | 6.96 |
| 6.41 | 5.54 | 8.05 | Cc1ccc(C(=O)N[C@H]2CCCC[C@@H]2O)cc1OCc1cncc(-c2cccnc2)c1 [Example 165, 3-[([3,3′-bipyridin]-5-yl)methoxy]-N-[(1S,2S)-2-hydroxycyclohexyl]-4-methylbenzamide] |  |  |  | 7.34 |
| 7.31 | 5.92 | 8.60 | Cc1ccc(C(=O)N[C@H]2CCCC[C@@H]2O)cc1OCc1cncc(-c2ncccn2)c1 [Example 166, N-[(1S,2S)-2-hydroxycyclohexyl]-4-methyl-3-{[5-(pyrimidin-2-yl)pyridin-3-yl]methoxy}benzamide] |  |  |  | 7.19 |
| 6.46 | 5.39 | 7.74 | Cc1ccc(C(=O)N[C@H]2CCCC[C@@H]2O)cc1COc1cncc(-c2cccnc2)c1 [Example 168, 3-{[([3,3′-bipyridin]-5-yl)oxy]methyl}-N-[(1S,2S)-2-hydroxycyclohexyl]-4-methylbenzamide] |  |  |  | 6.96 |
| 7.28 | 6.40 | 8.40 | Cc1ccc(C(=O)N[C@H]2CCCC[C@@H]2O)cc1COc1cncc(-c2ncccn2)c1 [Example 169, N-[(1S,2S)-2-hydroxycyclohexyl]-4-methyl-3-({[5-(pyrimidin-2-yl)pyridin-3-yl]oxy}methyl)benzamide] |  |  |  | 7.37 |

| Compound | pIC50 (PDGFR-β) | pIC50 [4] | pIC50 [5] | pIC50 [1] | pIC50 [2] | pIC50 [3] | pIC50 ([2]; PASMC, 24 h) |
| --- | --- | --- | --- | --- | --- | --- | --- |
| Cc1ccc(C(=O)N[C@H]2CCCC[C@@H]2O)cc1C#Cc1cncc(-c2ccccc2)c1 [Example 60, N-[(1S,2S)-2-hydroxycyclohexyl]-4-methyl-3-[(5-phenylpyridin-3-yl)ethynyl]benzamide] | 7.34 |  |  | 6.39 |  | 8.23 | 7.59 |
| Cc1ccc(C(=O)N[C@H]2CCCC[C@@H]2O)cc1C#Cc1cncc(-c2ccccc2)n1 [Example 75, N-[(1S,2S)-2-hydroxycyclohexyl]-4-methyl-3-[(6-phenylpyrazin-2-yl)ethynyl]benzamide] | 7.82 |  |  | 6.52 |  | 8.35 | 7.89 |
| Cc1ccc(CNc2cncc(-c3ncccn3)c2)cc1NC(=O)N[C@@H]1CCCC[C@@H]1O [Example 163, N-[(1R,2S)-2-hydroxycyclohexyl]-N′-[2-methyl-5-({[5-(pyrimidin-2-yl)pyridin-3-yl]amino}methyl)phenyl]urea] | 6.59 |  | 6.70 | 5.59 | 6.82 |  |  |
| Cc1ccc(C(=O)N[C@H]2CCCC[C@@H]2O)cc1/C=C/c1cncc(-c2ccccc2)c1 [Example 173, N-[(1S,2S)-2-hydroxycyclohexyl]-4-methyl-3-[(E)-2-(5-phenylpyridin-3-yl)ethenyl]benzamide] | 7.27 |  |  | 6.15 |  | 8.34 |  |
